Experimental data: patent US20250332173A1, “COMPOUNDS AND METHODS FOR MODULATING NUCLEIC ACID SPLICING” (REMIX THERAPEUTICS INC., priority 2021, published 2025)
Read-outs that look alike come from different tables or passages of the source.

Columns and labels:
[1] = tested on: K562 (human chronic myelogenous leukemia) cells; assay: Cell Titer Glo 2.0 cell viability assay; format: cell-based; conditions: Homo sapiens, K562, 72 h, K562 cells, 72 hours, Cell Titer Glo 2.0; read-out: K562 GI50
HTT mRNA = assay: RT-qPCR splicing assay, HTT canonical junction (CJ) and alternative junction (AJ) mRNA; format: cell-based, human; conditions: Homo sapiens; for AC50: increase in HTT alternative junction (AJ) mRNA, read-out: HTT AJ AC50
Method in brief: (§1)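 Read-out is one-step RT-qPCR on cell lysates detecting the exon-exon junction of each isoform, normalized to a housekeeping gene (PPIA in A673, GAPDH or GUSB in K562).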

Target C = assay: HiBiT protein abundance assay, Target C (Promega Nano-Glo HiBiT Lytic Detection System, knock-in K562 cell line); format: cell-based, human; conditions: Homo sapiens, K562, 24 h, HiBiT K562 cell line, 24 hours, top dose 10 μM; read-out: Effect on protein abundance, Target C (IC50 category)
Method in brief: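 Protein abundance was read by Nano-Glo HiBiT lytic luminescence after 24 h compound exposure (10-point, threefold series from 10 μM final) of HiBiT knock-in K562 cells. Parental K562 served as baseline; the 50%-abundance concentration was interpolated from a four-parameter logistic fit.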

MYB mRNA = assay: RT-qPCR splicing assay, MYB canonical junction (CJ) and alternative junction (AJ) mRNA; format: cell-based, human; conditions: Homo sapiens; for AC50: increase in MYB alternative junction (AJ) mRNA, read-out: MYB AJ AC50
Method in brief: as §1

[2] = decrease in HTT canonical junction (CJ) mRNA, RT-qPCR, read-out: HTT CJ IC50
[3] = canonical junction qPCR panel, Table 5, read-out: HTT (decrease in CJ mRNA levels, IC50)
[4] = canonical junction qPCR panel, Table 5, read-out: MYB (decrease in CJ mRNA levels, IC50)
[5] = decrease in MYB canonical junction (CJ) mRNA, RT-qPCR, read-out: MYB CJ IC50

Row | Structure (SMILES) | GI50 [1] [µM] | IC50 (HTT mRNA; [2]) [µM] | AC50 (HTT mRNA; RT-qPCR) [µM] | IC50 (HTT mRNA; [3]) [µM] | IC50 (Target C) [µM] | IC50 (MYB mRNA; [4]) [µM] | IC50 (MYB mRNA; [5]) [µM] | AC50 (MYB mRNA; RT-qPCR) [µM]
1 | Cc1c(O)c(-c2ncc3c(=O)n([C@H]4CCNC(C)(C)C4)ccc3n2)cc2cn(C)nc12 [Compound 1436] | < 0.1 | 1 to 10 | 1 to 10 | 1 to 10 | 0.1 to 1 | < 0.1 | < 0.1 | < 0.1
2 | Cc1cn2nc(-c3ccc4c(=O)n([C@H]5CCNC5)ccc4n3)cc(C)c2n1 [Compound 1437, 2-(2,8-dimethylimidazo[1,2-b]pyridazin-6-yl)-6-[(3S)-pyrrolidin-3-yl]-1,6-aphthyridin-5-one] | 1 to 10 | 1 to 10 | 1 to 10 | 1 to 10 | 1 to 10 | 0.1 to 1 | 0.1 to 1 | 0.1 to 1
3 | Cc1cn2nc(-c3ccc4c(=O)n([C@@H]5CCNC5)ccc4n3)cc(C)c2n1 [Compound 1438, 2-(2,8-dimethylimidazo[1,2-b]pyridazin-6-yl)-6-[(3R)-pyrrolidin-3-yl]-1,6-naphthyridin-5-one] | 1 to 10 | 1 to 10 | 1 to 10 | 1 to 10 | 1 to 10 | 0.1 to 1 | 0.1 to 1 | 0.1 to 1
4 | Cc1c(O)c(-c2ncc3c(=O)n([C@H]4CCN[C@@H](C)C4)ccc3n2)cc2cn(C)nc12 [Compound 1441, 2-(6-hydroxy-2,7-dimethyl-indazol-5-yl)-6-(2-methyl-4-piperidyl)pyrido[4,3-d]pyrimidin-5-one] | < 0.1 | 0.1 to 1 | 0.1 to 1 | 0.1 to 1 | 0.1 to 1 | < 0.1 | < 0.1 | < 0.1
5 | Cc1c(O)c(-c2ncc3c(=O)n(C4CCNC(C)(C)C4)ccc3n2)cc2cn(C)nc12 (centres unmarked) [Compound 1442] | 0.1 to 1 | 1 to 10 | 0.1 to 1 | 0.1 to 1 | 0.1 to 1 | 0.1 to 1 | < 0.1 | 0.1 to 1
6 | Cc1c(O)c(-c2ncc3c(=O)n([C@@H]4C[C@H]5C[C@@H]4CN5)ccc3n2)cc2cn(C)nc12 [Compound 1445, 6-[(1R,4R,5R)-2-azabicyclo[2.2.1]heptan-5-yl]-2(6-hydroxy-2,7-dimethyl-indazol-5-yl)pyrido[4,3-d]pyrimidin-5-one] | 1 to 10 | > 10 | > 10 | > 10 | > 10 | 1 to 10 | > 10 | 1 to 10
7 | Cc1c(O)c(-c2ccc3c(=O)n(C4CC(C)NC(C)C4)ccc3n2)cc2cn(C)nc12 (centres unmarked) [Compound 1447, 6-(2,6-dimethyl-4-piperidyl)-2-(6-hydroxy-2,7-dimethyl-indazol-5-yl)-1,6-naphthyridin-5-one] | 0.1 to 1 | 0.1 to 1 | 0.1 to 1 | 0.1 to 1 | 0.1 to 1 | 0.1 to 1 | 0.1 to 1 | 0.1 to 1
8 | Cc1cn2cc(-c3cc(O)c4c(=O)n(C5CCNCC5)ccc4n3)cc(F)c2n1 [Compound 1448] | 0.1 to 1 | 1 to 10 | 0.1 to 1 | 0.1 to 1 | 0.1 to 1 | 0.1 to 1 | 0.1 to 1 | 0.1 to 1
9 | Cc1c(O)c(-c2ccc3c(=O)n([C@H]4CCNC4)ccc3n2)cc2cn(C)nc12 [Compound 1449, 2-(6-hydroxy-2,7-dimethyl-indazol-5-yl)-6-[(3S)-pyrrolidin-3-yl]-1,6-naphthyridin-5-one] | 0.1 to 1 | 1 to 10 | 1 to 10 | 1 to 10 | 1 to 10 | 0.1 to 1 | 0.1 to 1 | 0.1 to 1
10 | Cc1c(O)c(-c2ccc3c(=O)n([C@@H]4CCNC4)ccc3n2)cc2cn(C)nc12 [Compound 1450, 2-(6-hydroxy-2,7-dimethyl-indazol-5-yl)-6-[(3R)-pyrrolidin-3-yl]-1,6-naphthyridin-5-one] | 0.1 to 1 | 1 to 10 | 1 to 10 | 1 to 10 | 1 to 10 | 0.1 to 1 | 0.1 to 1 | 0.1 to 1
11 | Cn1cc2cc(-c3ccc4c(=O)n([C@H]5CCNC5)ccc4n3)c(O)c(F)c2n1 [Compound 1451, 2-(7-fluoro-6-hydroxy-2-methyl-indazol-5-yl)-6-[(3S)-pyrrolidin-3-yl]-1,6-naphthyridin-5-one] | 0.1 to 1 | 0.1 to 1 | 0.1 to 1 | 0.1 to 1 | 0.1 to 1 | < 0.1 | 0.1 to 1 | < 0.1
12 | Cn1cc2cc(-c3ccc4c(=O)n([C@@H]5CCNC5)ccc4n3)c(O)c(F)c2n1 [Compound 1452, 2-(7-fluoro-6-hydroxy-2-methyl-indazol-5-yl)-6-[(3R)-pyrrolidin-3-yl]-1,6-naphthyridin-5-one] | 0.1 to 1 | 0.1 to 1 | 0.1 to 1 | 0.1 to 1 | 0.1 to 1 | < 0.1 | 0.1 to 1 | < 0.1
13 | Cc1c(O)c(-c2ncc3c(=O)n([C@@H]4C[C@@H](C)N[C@@H](C)C4)ccc3n2)cc2cn(C)nc12 [Compound 1453, 6-[(2S,6R)-2,6-dimethyl-4-piperidyl]-2-(6-hydroxy-2,7-dimethyl-indazol-5-yl)pyrido[4,3-d]pyrimidin-5-one] | 0.1 to 1 | > 10 | 1 to 10 | 1 to 10 | > 10 | 0.1 to 1 | 1 to 10 | 0.1 to 1
14 | Cc1c(O)c(-c2ncc3c(=O)n(C4C[C@@H](C)N[C@H](C)C4)ccc3n2)cc2cn(C)nc12 (stereo partly drawn) [Compound 1454, 6-[(2R,6R)-2,6-dimethyl-4-piperidyl]-2-(6-hydroxy-2,7-dimethyl-indazol-5-yl)pyrido[4,3-d]pyrimidin-5-one] | 0.1 to 1 | 1 to 10 | 0.1 to 1 | 0.1 to 1 | 1 to 10 | 0.1 to 1 | 0.1 to 1 | 0.1 to 1
15 | Cc1c(O)c(-c2ncc3c(=O)n(C4C[C@H](C)N[C@@H](C)C4)ccc3n2)cc2cn(C)nc12 (stereo partly drawn) [Compound 1455, 6-[(2S,6S)-2,6-dimethyl-4-piperidyl]-2-(6-hydroxy-2,7-dimethyl-indazol-5-yl)pyrido[4,3-d]pyrimidin-5-one] | < 0.1 | 0.1 to 1 | 0.1 to 1 | 0.1 to 1 | 0.1 to 1 | < 0.1 | < 0.1 | < 0.1
16 | Cc1cn2cc(-c3cc(F)c4c(=O)n([C@@H]5CNC[C@H]5F)ccc4c3)cc(F)c2n1 [Compound 1456] | 1 to 10 | > 10 | > 10 | > 10 | > 10 | 0.1 to 1 | 0.1 to 1 | 0.1 to 1
